Legend:
[1] = target: T1, estrogen receptor consisting of calf uterus cytosol (Bos taurus, UniProt P49884); assay: Relative binding affinity (RBA) for the estrogen receptor, displacement of 3H-17β-estradiol; details: RBA(17β-estradiol) = 100
T1 construct: for the estrogen receptor consisting of calf uteri; from tissue; host or cells: calf uterus
T1 sequence (P49884 1-596): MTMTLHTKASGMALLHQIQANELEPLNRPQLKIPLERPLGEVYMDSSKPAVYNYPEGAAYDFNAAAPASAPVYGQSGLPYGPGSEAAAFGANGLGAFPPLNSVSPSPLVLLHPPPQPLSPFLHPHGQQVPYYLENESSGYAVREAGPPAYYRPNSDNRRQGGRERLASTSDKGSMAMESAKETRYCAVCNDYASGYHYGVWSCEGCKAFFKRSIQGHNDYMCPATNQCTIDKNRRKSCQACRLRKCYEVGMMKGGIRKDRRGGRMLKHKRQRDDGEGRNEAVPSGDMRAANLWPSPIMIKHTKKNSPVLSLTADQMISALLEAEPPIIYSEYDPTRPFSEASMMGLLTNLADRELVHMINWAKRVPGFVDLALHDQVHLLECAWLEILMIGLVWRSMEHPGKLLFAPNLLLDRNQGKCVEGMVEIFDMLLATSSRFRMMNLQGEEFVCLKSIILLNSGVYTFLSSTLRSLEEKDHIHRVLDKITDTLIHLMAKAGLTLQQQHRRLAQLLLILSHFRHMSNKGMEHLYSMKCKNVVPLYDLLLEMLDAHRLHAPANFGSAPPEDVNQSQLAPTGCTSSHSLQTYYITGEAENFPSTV

[2] = test system: hormone-sensitive human MCF-7 breast cancer cells; assay: Cytostatic activity on hormone-sensitive human MCF-7 breast cancer cells (T/C of optical densities); format: cell-based; details: mean of 16 determinations ± SD
[3] = test system: uterus of infantile mice; assay: Uterus weight test in infantile mice (estrogenic and antiestrogenic action); format: in vivo; details: for estrogenic action on the uterus of infantile mice: s.c. in olive oil on three successive days, uterus dry weight/body weight 24 hours after the last injection
Experimental: Compound no. […] For compounds nos. […] The dose/animal was administered s.c., dissolved in olive oil, on three successive days. The dry weight of the uterus [mg]/body weight [g]×100 was determined 24 hours after the last injection. This test is described in detail in Cancer Treatment Reviews, 1984, 11, 147 and J. Med. Chem., 1984, 27, 1439.

[4] = substance concentration 1 · 10^−6 M in the incubation medium
[5] = substance concentration 1 · 10^−7 M in the incubation medium
[6] = substance concentration 1 · 10^−8 M in the incubation medium
[7] = substance concentration 1 · 10^−9 M in the incubation medium

Compound `CNC(=O)CCCCCCCCCCn1c(-c2ccc(OC)cc2)c(C)c2cc(OC)ccc21` [Example 7, 5-Methoxy-2-(4-methoxyphenyl)-3-methyl-1-[10-(N-methylcarbamoyl)-decyl]-indole] has a melting point of 88 °C.

With `CCCS(=O)(=O)CCCCCCCCCCCCn1c(-c2ccc(O)cc2)c(C)c2cc(O)ccc21` [Compound 4, 5-hydroxy-2-(4-hydroxyphenyl)-3-methyl-1-[12-(propylsulfonyl)-dodecyl]-indole] the “RBA(*) relative binding affinity for the estrogen receptor” value (“RBA(*) relative binding affinity” below) [1] was 1.9.

With `CCCCC[S+]([O-])CCCCCCCCCCn1c(-c2ccc(O)cc2)c(C)c2cc(O)ccc21` (stereo not shown) [Compound 2, 5-Hydroxy-2-(4-hydroxyphenyl)-3-methyl-1-[10-(pentylsulfinyl)-decyl]-indole] the “RBA(*) relative binding affinity” value [1] was 3.4.

With `Cc1c(-c2ccc(O)cc2)n(CCCCCCCCCCCN(C)S(=O)(=O)Cc2ccccc2)c2ccc(O)cc12` [Compound 9, 5-hydroxy-2-(4-hydroxyphenyl)-3-methyl-1-[11-(N-methyl-phenylmethanesulfonamido)-undecyl]-indole] the “RBA(*) relative binding affinity” value [1] was 1.0.

For `CCCCN(C)C(=O)CCCSCCCCCCn1c(-c2ccc(O)cc2)c(C)c2cc(O)ccc21` [Compound 13, 1-{6-[3′-(n-butyl-methylcarbamoyl)-propylthio]-hexyl}-5-hydroxy-2-(4-hydroxyphenyl)-3-methylindole], the “T/C [%]” value [2, 4] was 15.8 ± 6.9%, the “T/C [%]” value [2, 5] was 40.2 ± 11.4% and the “T/C [%]” value [2, 6] was 92.9 ± 15.2%. For the same compound, the “T/C [%]” value [2, 7] was 85.6 ± 16.0% and the “RBA(*) relative binding affinity” value [1] was 1.3.

For `CCCCCSCCCCCCCCCCn1c2c(c3cc(O)ccc31)CCc1cc(O)ccc1-2` [Compound 16, 6,11-dihydro-3,8-dihydroxy-5H-1-[10-(pentylthio)-decyl]benzo[a]carbazole], the “T/C [%]” value ([2]; substance concentration 1 · 10^−5 M in the incubation medium) was −38.6 ±13.9%, the “T/C [%]” value [2, 4] was −7.8 ± 8.9% and the “T/C [%]” value [2, 5] was −18.5 ± 15.4%. For the same compound, the “T/C [%]” value ([2]; substance concentration 6 · 10^−6 M in the incubation medium) was −31.1 ± 10.0% and the “RBA(*) relative binding affinity” value [1] was 0.13.

With `CCC[S+]([O-])CCCCCCCCCCCCn1c(-c2ccc(O)cc2)c(C)c2cc(O)ccc21` (stereo not shown) [Compound 5, 5-hydroxy-2-(4-hydroxyphenyl)-3-methyl-1-[12-(propylsulfinyl)-dodecyl]-indole] the “RBA(*) relative binding affinity” value [1] was 2.9.

In the case of `CCCCCS(=O)(=O)CCCCOc1ccc(Cn2c(-c3ccc(O)cc3)c(C)c3cc(O)ccc32)cc1` [Compound 15, 5-hydroxy-2-(4-hydroxyphenyl)-3-methyl-1-[4-[4-(pentylsulfonyl)butoxy]-benzyl]-indole], the “RBA(*) relative binding affinity” value [1] is reported as 9.5.

`COc1ccc(-c2c(C)c3cc(OC)ccc3n2CCCCCCCCSc2ccccn2)cc1` [Example 6, 5-Methoxy-2-(4-methoxyphenyl)-3-methyl-1-[8-(2-pyridinylthio)-octyl]-indole] showed a melting point of 75 to 77 °C.

In the case of `Cc1c(-c2ccc(O)cc2)n(CCCCCCCCSc2ccccn2)c2ccc(O)cc12` [Compound 6, 5-hydroxy-2-(4-hydroxyphenyl)-3-methyl-1-[8-(2-pyridinylthio)-octyl]-indole], the melting point is reported as 56 to 60 °C and the “RBA(*) relative binding affinity” value [1] is reported as 1.4.

In the case of `CCCCCS(=O)(=O)CCCCCCCCCCn1c(-c2ccc(O)cc2)c(C)c2cc(O)ccc21` [Compound 3, 5-Hydroxy-2-(4-hydroxyphenyl)-3-methyl-1-[10-(pentylsulfonyl)-decyl]-indole], the “action of estrogen (0.4 μg/animal) on the uterus (antiestrogenic effect)” value ([3]; 10 mg/kg s.c., three successive days, with estrogen 0.4 μg/animal) is reported as “completely cancelled out”, the “dry weight of the uterus compared to control level” value ([3]; dose of 35 mg/kg s.c., three successive days) is reported as “still lies below the control level” and the “estrogenic action on the uterus of infantile mice” value [3] is reported as “does not show any estrogenic action”.

For `Cc1c(-c2ccc(O)cc2)n(CCCCCCCCC[S+]([O-])CCCC(F)(F)C(F)(F)F)c2ccc(O)cc12` (stereo not shown) [Compound 11, 5-hydroxy-2-(4-hydroxyphenyl)-3-methyl-1-[9-(4,4,5,5,5-pentafluoropentylsulfinyl)-nonyl]-indole], the “estrogenic action on the uterus of infantile mice” value [3] was “virtually identical results” and the “RBA(*) relative binding affinity” value [1] was 2.4.

For `CCCCCSCCCCCCCCCCn1c(-c2ccc(O)cc2)c(C)c2cc(O)ccc21` [Compound 1, 5-Hydroxy-2-(4-hydroxyphenyl)-3-methyl-1-[10-(pentylthio)-decyl]-indole], the “RBA(*) relative binding affinity” value [1] was 0.3.

In the case of “5-hydroxy-2-(4-hydroxyphenyl)-3-methyl-1-[12-[2-(N-methyl-imidazolyl)thio]-decyl]-indole [Compound 7]”, the “T/C [%]” value [2, 4] is reported as 36.8 ± 8.7%, the “T/C [%]” value [2, 5] is reported as 60.4 ± 9.1% and the “T/C [%]” value [2, 6] is reported as 83.8 ± 11.3%. The “RBA(*) relative binding affinity” value [1] was 2.0.

In the case of `CCCCN(C)S(=O)(=O)CCCCCCCCCCn1c(-c2ccc(O)cc2)c(C)c2cc(O)ccc21` [Compound 10, 1-[10-(n-butyl-methylsulfamoyl)-decyl]-5-hydroxy-(4-hydroxyphenyl)-3-methylindole], the “T/C [%]” value [2, 4] is reported as −12.3 ± 6.3%, the “T/C [%]” value [2, 5] is reported as −13.4 ± 4.5% and the “T/C [%]” value [2, 6] is reported as 0.5 ± 6.3%. For the same compound, the “T/C [%]” value [2, 7] was 86.3 ± 18.0% and the “RBA(*) relative binding affinity” value [1] was 2.6.

In the case of `Cc1c(-c2ccc(O)cc2)n(CCCCCCCCCS(=O)(=O)CCCC(F)(F)C(F)(F)F)c2ccc(O)cc12` [Compound 12, 5-hydroxy-2-(4-hydroxyphenyl)-3-methyl-1-[9-(4,4,5,5,5-pentafluoropentylsulfonyl)-nonyl]-indole], the “RBA(*) relative binding affinity” value [1] is reported as 1.0.

With `CCCS(=O)(=O)N(C)CCCCCCCCCCCn1c(-c2ccc(O)cc2)c(C)c2cc(O)ccc21` [Compound 8, 5-hydroxy-2-(4-hydroxyphenyl)-3-methyl-1-[11-(N-methyl-propylsulfonamido)-undecyl]-indole] the “RBA(*) relative binding affinity” value [1] was 1.8.

With `Cc1c(-c2ccc(O)cc2)n(CCCCCCCCCCSCC(=O)N(C)C(C)C)c2ccc(O)cc12` [Compound 14, 5-hydroxy-2-(4-hydroxyphenyl)-3-methyl-1-[10-[(methyl-iso-propylcarbamoyl)-methylthio]-decyl]-indole] the “RBA(*) relative binding affinity” value [1] was 1.7.

Reference: patent US6503938B1, “2-phenylindoles as antiestrogenic pharmaceutical agents” (Schering Aktiengesellschaft, priority 1994, dated 2003)
